The results in this text go back to patent US20120077854A1, “COMPOSITIONS AND METHODS FOR MODULATING RETINOL BINDING TO RETINOL BINDING PROTEIN 4 (RBP4)” (priority 2009, published 2012).

For this experiment, the target named is RBP4 (Homo sapiens, UniProt P02753). Kind of experiment: HTRF competition assay: displacement of Cy5-labeled retinol from RBP4. Format: binding. The following applies: 10 nM biotin-labeled RBP4, streptavidin-Europium cryptate 1 nM, room temperature 30 min. As to the method:
To determine the binding affinity of test compounds for RBP4, a homogeneous time resolved fluorescence (HTRF) assay was developed. The assay was a competition experiment measuring the interaction of RBP4 with the known RBP4 ligand retinol. Cy5-labeled retinol was incubated with 10 nM biotin-labeled RBP4 protein and streptavidin-Europium cryptate (1 nM). Test or control compounds were added to the reaction mixture and incubated at room temperature for 30 min. The HTRF signal was determined by monitoring the emission at 665 nm and […]. The ratio between the 665 nM signal and the […] signal was used to determine the binding of Cy5-retinol to RBP4. The ability of test or control compounds to displace Cy5-retinol from RBP4 was used to determine their potency for RBP4. […]
On the technique in general: In TR-FRET formats the signal depends on donor and acceptor labels being close together.
On to `COC(=O)Cc1csc(-c2cc(C(F)(F)F)cc(C(F)(F)F)c2)n1` [Example 1, Methyl 2-(2-(3,5-bis(trifluoromethyl)phenyl)thiazol-4-yl)acetate], for which the concentration for half-maximal inhibition (IC50) turned out to be 2430 nM.

Consider `O=C(O)Cc1csc(-c2cc(C(F)(F)F)cc(C(F)(F)F)c2)n1` [Example 2, 2-(2-(3,5-Bis(trifluoromethyl)phenyl)thiazol-4-yl)acetic acid], for which the IC50 amounted to 85 nM. With `COC(=O)Cc1nc(-c2cc(C(F)(F)F)cc(C(F)(F)F)c2)no1` [Example 3, Methyl 2-(3-(3,5-bis(trifluoromethyl)phenyl)-1,2,4-oxadiazol-5-yl)acetate], the 50% inhibitory concentration (IC50) came out at 3440 nM.

The compound `COC(=O)Cc1coc(-c2cc(C(F)(F)F)cc(C(F)(F)F)c2)n1` [Example 4, Methyl 2-(2-(3,5-bis(trifluoromethyl)phenyl)oxazol-4-yl)acetate] came in with a half-inhibitory concentration (IC50) of 2850 nM. For `COC(=O)Cc1nc(-c2cc(C(F)(F)F)cc(C(F)(F)F)c2)co1` [Example 5, Methyl 2-(4-(3,5-bis(trifluoromethyl)phenyl)oxazol-2-yl)acetate] the value was 924 nM; for `O=C(O)Cc1coc(-c2cc(C(F)(F)F)cc(C(F)(F)F)c2)n1` [Example 6, 2-(2-(3,5-Bis(trifluoromethyl)phenyl)oxazol-4-yl) acetic acid], 93 nM; for `O=C(O)Cc1nc(-c2cc(C(F)(F)F)cc(C(F)(F)F)c2)co1` [Example 7, 2-(4-(3,5-Bis(trifluoromethyl)phenyl)oxazol-2-yl)acetic acid], 31 nM. For `O=C(O)Cc1csc(-c2cc(Cl)cc(C(F)(F)F)c2)n1` [Example 8, 2-(2-(3-Chloro-5-(trifluoromethyl)phenyl)thiazol-4-yl)acetic acid] the value was 88 nM; for `Cc1sc(CC(=O)O)nc1-c1cc(C(F)(F)F)cc(C(F)(F)F)c1` [Example 9, 2-(4-(3,5-Bis(trifluoromethyl)phenyl)-5-methylthiazol-2-yl)acetic acid], 232 nM. On to `O=C(O)Cc1csc(-c2ccc(Cl)c(C(F)(F)F)c2)n1` [Example 10, 2-(2-(4-Chloro-3-(trifluoromethyl)phenyl)thiazol-4-yl)acetic acid], for which the IC50 was found to be 63 nM. In the case of `Cc1oc(CC(=O)O)nc1-c1cc(C(F)(F)F)cc(C(F)(F)F)c1` [Example 11, 2-(4-(3,5-Bis(trifluoromethyl)phenyl)-5-methyloxazol-2-yl)acetic acid], the 50% inhibitory concentration (IC50) was found to be 1590 nM. In the case of `O=C(O)Cc1nc(-c2cc(F)cc(C(F)(F)F)c2)co1` [Example 12, 2-(4-(3-Fluoro-5-(trifluoromethyl)phenyl)oxazol-2-yl)acetic acid], the IC50 came out at 73 nM.

`O=C(O)Cc1nc(-c2cc(F)cc(C(F)(F)F)c2)cs1` [Example 13, 2-(4-(3-Fluoro-5-(trifluoromethyl)phenyl)thiazol-2-yl)acetic acid] showed a half-maximal inhibitory concentration (IC50) of 91 nM.

In turn, `COc1cc(-c2nc(CC(=O)O)cs2)cc(C(F)(F)F)c1` [Example 14, 2-(2-(3-Methoxy-5-(trifluoromethyl)phenyl)thiazol-4-yl)acetic acid] registered an IC50 of 88 nM. `COc1cc(-c2nc(CC(=O)O)co2)cc(C(F)(F)F)c1` [Example 15, 2-(2-(3-Methoxy-5-(trifluoromethyl)phenyl)oxazol-4-yl)acetic acid]: the IC50 turned out to be 248 nM.

As for `O=C(O)C(O)c1csc(-c2cc(C(F)(F)F)cc(C(F)(F)F)c2)n1` (stereo not drawn) [Example 16, 2-(2-(3,5-Bis(trifluoromethyl)phenyl)thiazol-4-yl)-2-hydroxyacetic acid], the IC50 was 141 nM.

The compound `Cc1ccc(-c2nc(CC(=O)O)cs2)cc1C(F)(F)F` [Example 17, 2-(2-(4-Methyl-3-(trifluoromethyl)phenyl)thiazol-4-yl)acetic acid] showed a half-inhibitory concentration (IC50) of 86 nM.

`O=C(O)Cc1csc(-c2ccc(F)c(C(F)(F)F)c2)n1` [Example 18, 2-(2-(4-Fluoro-3-(trifluoromethyl)phenyl)thiazol-4-yl)acetic acid]: the half-inhibitory concentration (IC50) is 440 nM. On to `O=C(O)Cc1coc(-c2cc(F)cc(C(F)(F)F)c2)n1` [Example 19, 2-(2-(3-Fluoro-5-(trifluoromethyl)phenyl)oxazol-4-yl)acetic acid], for which the IC50 is 658 nM. The same measure for `O=C(O)Cc1csc(-c2cc(F)cc(C(F)(F)F)c2)n1` [Example 20, 2-(2-(3-Fluoro-5-(trifluoromethyl)phenyl)thiazol-4-yl)acetic acid]: 168 nM.

`O=C(O)Cc1csc(-c2cc(C(F)(F)F)ccc2Cl)n1` [Example 21, 2-(2-(2-Chloro-5-(trifluoromethyl)phenyl)thiazol-4-yl)acetic acid] displayed an IC50 of 1050 nM. The same measure for `O=C(O)Cc1coc(-c2cccc(C(F)(F)F)c2Cl)n1` [Example 22, 2-(2-(2-Chloro-3-(trifluoromethyl)phenyl)oxazol-4-yl)acetic acid]: 1660 nM; for `COc1ccc(-c2nc(CC(=O)O)co2)cc1C(F)(F)F` [Example 23, 2-(2-(4-Methoxy-3-(trifluoromethyl)phenyl)oxazol-4-yl)acetic acid]: 175 nM. For `O=C(O)Cc1coc(-c2ccc(F)c(C(F)(F)F)c2)n1` [Example 24, 2-(2-(4-Fluoro-3-(trifluoromethyl)phenyl)oxazol-4-yl)acetic acid] the value was 721 nM; for `O=C(O)Cc1cc(-c2ccc(Cl)c(C(F)(F)F)c2)no1` [Example 25, 2-(3-(4-Chloro-3-(trifluoromethyl)phenyl)isoxazol-5-yl)acetic acid], 285 nM. `COc1ccc(-c2nc(CC(=O)O)cs2)cc1C(F)(F)F` [Example 26, 2-(2-(4-Methoxy-3-(trifluoromethyl)phenyl)thiazol-4-yl)acetic acid]: the 50% inhibitory concentration (IC50) is 193 nM. `O=C(O)Cc1csc(-c2cccc(C(F)(F)F)c2Cl)n1` [Example 27, 2-(2-(2-Chloro-3-(trifluoromethyl)phenyl)thiazol-4-yl)acetic acid]: the IC50 was 2380 nM. In the case of `O=C(O)Cc1csc(-c2cc(Br)cc(C(F)(F)F)c2)n1` [Example 28, 2-(2-(3-Bromo-5-(trifluoromethyl)phenyl)thiazol-4-yl)acetic acid], the IC50 was determined as 50 nM. `O=C(O)Cc1coc(-c2cc(F)c(F)c(C(F)(F)F)c2)n1` [Example 29, 2-(2-(3,4-Difluoro-5-(trifluoromethyl)phenyl)oxazol-4-yl)acetic acid] gave an IC50 of 263 nM. `O=C(O)Cc1csc(-c2cc(F)c(F)c(C(F)(F)F)c2)n1` [Example 30, 2-(2-(3,4-Difluoro-5-(trifluoromethyl)phenyl)thiazol-4-yl)acetic acid] showed an IC50 of 86 nM.

`O=C(O)Cc1csc(-c2cc(C(F)F)cc(C(F)(F)F)c2)n1` [Example 32, 2-(2-(3-(Difluoromethyl)-5-(trifluoromethyl)phenyl)thiazol-4-yl)acetic acid] displayed a 50% inhibitory concentration (IC50) of 134 nM. The same measure for `O=C(O)c1nc(-c2cc(C(F)(F)F)cc(C(F)(F)F)c2)cs1` [Example 33, 4-(3,5-Bis-trifluoromethyl-phenyl)-thiazole-2-carboxylic acid]: 1060 nM; for `FC(F)(F)c1cc(-c2nc(Cc3nn[nH]n3)cs2)cc(C(F)(F)F)c1` [Example 34, 5-[2-(3,5-Bis-trifluoromethyl-phenyl)-thiazol-4-ylmethyl]-2H-tetrazole]: 98 nM; for `FC(F)(F)c1cc(-c2nc(Cc3nn[nH]n3)cs2)ccc1Cl` [Example 35, 5-[2-(4-Chloro-3-trifluoromethyl-phenyl)-thiazol-4-ylmethyl]-2H-tetrazole]: 196 nM.

Compound `O=C(O)Cc1coc(-c2cc(C(F)(F)F)ccc2Cl)n1` [Example 36, 2-(2-(2-Chloro-5-(trifluoromethyl)phenyl)oxazol-4-yl)acetic acid] registered an IC50 of 8820 nM. For `O=C(O)Cc1coc(-c2cc(Br)cc(C(F)(F)F)c2)n1` [Example 37, 2-(2-(3-Bromo-5-(trifluoromethyl)phenyl)oxazol-4-yl)acetic acid] the value was greater than 10000 nM.

In general, IC50 refers to the concentration at which inhibition is half-maximal. Low values mean greater potency, high ones weaker potency.
